Test results from ChEMBL document CHEMBL1127748, “Binding of fluorescent and spin-labeled C-terminal hirudin analogs to thrombin” (J Med Chem, 1994).

Tests used:
Prothrombin [1] = biological target: T1, Prothrombin (Homo sapiens, UniProt P00734); test: Binding affinity values determined by clotting inhibition assays
Prothrombin [2] = biological target: T1, Prothrombin; test: Inhibitory concentration against Thrombin; 0.029-0.15 uM

Row | SMILES | Ki (Prothrombin [1]) [nM] | IC50 (Prothrombin [2]) [nM]
1 | CC[C@H](C)[C@H](NC(=O)[C@H]1CCCN1C(=O)[C@H](CCC(=O)O)NC(=O)[C@@H](Cc1ccc(O)cc1)NC(=O)CC(N)C(=O)CCCCCCCNC(=O)c1ccccc1N)C(=O)N1CCC[C@@H]1C(=O)N[C@@H](CCC(=O)O)C(=O)N[C@H](CCC(=O)O)C(=O)N[C@@H](C)C(=O)N[C@H](CC1CCCCC1)C(=O)N[C@@H](CCC(=O)O)C(=O)O (some centres undefined) | 100 | 
2 | CC[C@H](C)[C@H](NC(=O)[C@H]1CCCN1C(=O)[C@H](CCC(=O)O)NC(=O)[C@@H](Cc1ccc(O)cc1)NC(=O)CC(N)C(=O)CCCCCCCNc1cccc2c(N(C)C)cccc12)C(=O)N1CCC[C@@H]1C(=O)N[C@@H](CCC(=O)O)C(=O)N[C@H](CCC(=O)O)C(=O)N[C@@H](C)C(=O)N[C@H](CC1CCCCC1)C(=O)N[C@@H](CCC(=O)O)C(=O)O (some centres undefined) | 100 | 
3 | CC[C@H](C)[C@H](NC(=O)[C@H]1CCCN1C(=O)[C@H](CCC(=O)O)NC(=O)[C@@H](Cc1ccc(O)cc1)NC(=O)CCC(=O)O)C(=O)N1CCC[C@@H]1C(=O)N[C@@H](CCC(=O)O)C(=O)N[C@H](CCC(=O)O)C(=O)N[C@@H](C)C(=O)N[C@H](CC1CCCCC1)C(=O)N[C@@H](CCC(=O)O)C(=O)O |  | 29
4 | CC[C@H](C)[C@H](NC(=O)[C@H]1CCCN1C(=O)[C@H](CCC(=O)O)NC(=O)[C@@H](Cc1ccc(O)cc1)NC(=O)CC(N)C(=O)CCCCCCCNC(=O)C1=CC(C)(C)N(O)C1(C)C)C(=O)N1CCC[C@@H]1C(=O)N[C@@H](CCC(=O)O)C(=O)N[C@H](CCC(=O)O)C(=O)N[C@@H](C)C(=O)N[C@H](CC1CCCCC1)C(=O)N[C@@H](CCC(=O)O)C(=O)O (some centres undefined) | 100 | 
